Measurements from patent US11344523B2, “Composition for use in treating rotavirus infection” (Devenish Nutrition Limited, priority 2016, dated 2022).

Key:
Porcine Rotavirus [1] = assay: Virucidal effect on porcine rotavirus in primary pig kidney cells; assay type: cell-based; details: total carboxylic acid concentration of 200 mM; for Result Replicate 2: controls PBS −5, ETHANOL −4; for Result Replicate 3: controls PBS −5, ETHANOL −5
Protocol: (§1) Carboxylic acids were obtained from David Garnett of Pathway Intermediates Ltd or from Sigma-Aldrich Co. LLC; and compositions were prepared in a Class II cabinet at room temperature in Hank's Balanced Salt Solution (Thermo Fisher Scientific Inc.) or ethanol by vortexing strongly to emulsify at a stock concentration of 1M. Stock concentrations were diluted to working concentrations e.g. of […] by serial dilution using Minimum Essential Medium (MEM) cell culture medium (Thermo Fisher Scientific Inc.) containing 2 mM L-Glutamine (Gibco Life Technologies Ltd.), and 100 μg/500 ml gentamycin (Lonza Group Ltd.).
A primary pig kidney (PPK) cell line was sourced from a kidney of a sacrificed piglet from the Agri-Food and Biosciences Institute (AFBI Hillsborough, UK). The kidney tissue was trypsinised to create a PPK cell line, which was maintained in Minimum Essential Medium (MEM) cell culture medium (Thermo Fisher Scientific Inc.) containing 2 mM L-Glutamine (Gibco Life Technologies Ltd.), 10% foetal calf serum (PAN-Biotech GmbH), and 100 μg/500 ml gentamycin (Lonza Group Ltd.).
(§2) In general, cells were seeded as at a density of 0.313e4-5.000e4 cells per 1 ml of cell suspension in growth medium, dispensed in to a SPL 24-Well Cell Culture Plate (SPL Life Sciences Co., Ltd.) in replicates of 3, each containing Academy Circular Cover Slips (Academy Science) and incubated overnight at 37° C. at 5% CO2. The growth medium was removed and replaced with 1 ml of Minimum Essential Medium (MEM) cell culture medium (Thermo Fisher Scientific Inc.) containing 2 mM L-Glutamine (Gibco Life Technologies Ltd.), and 100 μg/500 ml gentamycin (Lonza Group Ltd.) for treatment.
(§3) Porcine rotavirus was PROSYSTEM® ROTA PORCINE ROTAVIRUS VACCINE (Merck Animal Health).
Prior to treatment, the cells and coverslips were washed three times with Minimum Essential Medium (MEM) cell culture medium (Thermo Fisher Scientific Inc.) containing 2 mM L-Glutamine (Gibco Life Technologies Ltd.), and 100 μg/500 ml gentamycin (Lonza Group Ltd.). 100 μl of the virus at a titre of 10^9 TCID50/100 μl by the Reed-Muench method, and 100 μl of the treatment samples, were incubated for 30 mins at 37° C. at 5% CO2 The reaction was stopped by adding 800 μl of Minimum Essential Medium (MEM) cell culture medium (Thermo Fisher Scientific Inc.) containing 2 mM L-Glutamine (Gibco Life Technologies Ltd.), and 100 μg/500 ml gentamycin (Lonza Group Ltd.). Each treatment/virus was titrated out, initially 100 μl of each treatment was added to 900 μls of Minimum Essential Medium (MEM) cell culture medium (Thermo Fisher Scientific Inc.) containing 2 mM L-Glutamine (Gibco Life Technologies Ltd.), and 100 μg/500 ml gentamycin (Lonza Group Ltd.) to prepare a 10^−1 dilution. The 10^−1 dilution was then diluted in serial dilutions down to 10^−6 in the same medium 100 μl of media was then added to each appropriate well in replicates of 3 and incubated for 36 hours at 37° C. at 5% CO2 Ethanol or PBS were used as control treatments. Untreated cells were used as negative controls.
After incubation, coverslips were harvested. Each slip was harvested by lifting out of the medium with forceps then rinsing and fixing by dipping sequentially into glass universal bottles of PBS, acetone, and lastly acetone. The slip was then placed cells side up in a glass Petri dish of acetone in a Class II cabinet at room temperature for 10 minutes. […]

Porcine Rotavirus [2] = assay: Virucidal effect on porcine rotavirus in MA104 cells; assay type: cell-based; details: for Titre: incubation 30 mins, DMSO ✓, control titres ETOH −4, PBS −4
Protocol: as §1
(§4) MA104 cells were obtained from ECACC and were maintained in Minimum Essential Medium (MEM) cell culture medium (Thermo Fisher Scientific Inc.) containing 2 mM L-Glutamine (Gibco Life Technologies Ltd.), 10% foetal calf serum (PAN-Biotech GmbH), and 100 μg/500 ml gentamycin (Lonza Group Ltd.).
as §2, §3
Prior to treatment, the cells and coverslips were washed three times with Minimum Essential Medium (MEM) cell culture medium (Thermo Fisher Scientific Inc.) containing 2 mM L-Glutamine (Gibco Life Technologies Ltd.), and 100 μg/500 ml gentamycin (Lonza Group Ltd.). […]

[3] = test system: Porcine Respiratory and Reproductive Syndrome Virus (PRRSV); assay: Virucidal effect on PRRSV, virus/treatment titration read by immunofluorescence; assay type: cell-based; details: 200 mM
Protocol: as §1
as §4, with “MARC145” for “MA104”, “the Centre of Cell Cultures, Istituto Zooprofilattico Sperimentale Brescia, Italy” for “ECACC”
(§5) In general, cells were seeded as at a density of 0.313e4-5.000e4 cells per 1 ml of cell suspension in growth medium, dispensed in to a SPL 24-Well Cell Culture Plate (SPL Life Sciences Co., Ltd.) in replicates of 3, each containing Academy Circular Cover Slips (Academy Science) and incubated overnight at 37° C. at 5% CO2. […]

[4] = test system: porcine circovirus (PCV2); assay: Virucidal effect on PCV2 in PK15A cells; assay type: cell-based, Porcine circovirus type 2; details: at either 100 or 200 mM
[5] = test system: infectious bovine rhinotracheitis virus (IBRV); assay: Virucidal effect on IBRV, virus/treatment titration read by immunofluorescence; assay type: cell-based, Infectious bovine rhinotracheitis virus (Bovine Herpes 1); details: 100 mM
Protocol: as §1
as §4, with “MDBK” for “MA104”, “GmbH),” for “GmbH), and”, “Ltd.), and 1% essential non essential amino acids (Sigma-Aldrich Co. LLC.).” for “Ltd.).”
as §5

CCCCCCCCCC(=O)O [Decanoic Acid/Capric C10 (1M), Decanoic Acid]
Result Replicate 2 (Porcine Rotavirus [1]): −1
Result Replicate 3 (Porcine Rotavirus [1]): −ve

CCCCCCCCCCCC(=O)O [Dodecanoic acid/Lauric C12 (1M), Dodecanoic acid]
Result Replicate 2 (Porcine Rotavirus [1]): −ve
Result Replicate 3 (Porcine Rotavirus [1]): −1

CCCC(=O)[O-].[Na+] [Treatment A, Sodium butyrate]
reduction in titre (Porcine Rotavirus [2]; 200 mM): 2 log 10
Titre (Porcine Rotavirus [2]; Expt 1, FA conc 100 mM): −4
Titre (Porcine Rotavirus [2]; Expt 2, FA conc 200 mM): −2
reduction in titre [3]: 3.5 log10
susceptibility of virus to treatment [4]: not susceptible
reduction in titre [5]: 4 log10

CCCCCCCC(=O)O [Octanonic Acid/Caprylic C8 (1M), octanoic acid]
Result Replicate 2 (Porcine Rotavirus [1]): −2
Result Replicate 3 (Porcine Rotavirus [1]): −1

CCCC(=O)O [Butyric Acid C4 (1M), Butyric Acid]
Result Replicate 2 (Porcine Rotavirus [1]): −ve
Result Replicate 3 (Porcine Rotavirus [1]): −ve
